Laboratory results from EP0677522A1, “8-METHOXYQUINOLONECARBOXYLIC ACID DERIVATIVE” (priority 1992, dated 1994).
In brackets after ≈: the same amount, converted by molar mass.

Key:
[1] = tested on: A.calcoaceticus IFO 13006; assay: In vitro antibacterial activity (MIC), Japan Society of Chemotherapy Standard; assay type: cell-based; conditions: Acinetobacter calcoaceticus, IFO13006; inoculated cells 10⁶ cells/ml
Experimental: (§1) The in vitro antibacterial activity (minimum inhibitory concentration, MIC, µg/ml) of the test compounds was determined according to Japan Society of Chemotherapy Standard [Chemotherapy, vol. 29, pp 76-79 (1981)].
(§2) Inoculated cells were 10⁶ cells/ml and the strain with * was incubated in a medium supplemented with 10% horse blood. The mark "1)" means quinolone resistant MRSA and "2)" means quinolone resistant bacteria.

[2] = tested on: Citrobacter freundii IFO 12681; assay: as above; assay type: cell-based; conditions: IFO12681, inoculated cells 10⁶ cells/ml
Experimental: as §1, §2

E. avium EAY-30 = assay: as above; assay type: cell-based; conditions: Enterococcus avium, EAY30, inoculated cells 10⁶ cells/ml
Experimental: as §1, §2

E. faecium EFMY-28 = assay: as above; assay type: cell-based; conditions: Enterococcus faecium, EFMY28; inoculated cells 10⁶ cells/ml
Experimental: as §1, §2

[3] = tested on: Enterobacter cloacae IFO 12937; assay: as above; assay type: cell-based; conditions: IFO12937, inoculated cells 10⁶ cells/ml
Experimental: as §1, §2

[4] = tested on: Enterococcus faecalis LS-101; assay: as above; assay type: cell-based; conditions: LS101, inoculated cells 10⁶ cells/ml
Experimental: as §1, §2

[5] = tested on: Escherichia coli NIHJ JC-2; assay: as above; assay type: cell-based; conditions: NIHJJC2, inoculated cells 10⁶ cells/ml
Experimental: as §1, §2

K.pneumoniae DT-S = assay: as above; assay type: cell-based; conditions: Klebsiella pneumoniae; inoculated cells 10⁶ cells/ml
Experimental: as §1, §2

L.monocytogenes VTU-206 = assay: as above; assay type: cell-based; conditions: Listeria monocytogenes, VTU206; inoculated cells 10⁶ cells/ml; medium supplemented with 10% horse blood
Experimental: as §1, §2

M.catarrhalis ATCC 25238 = assay: as above; assay type: cell-based; conditions: Moraxella catarrhalis, ATCC25238; inoculated cells 10⁶ cells/ml; medium supplemented with 10% horse blood
Experimental: as §1, §2

P. mirabilis IFO 3849 = assay: as above; assay type: cell-based; conditions: Proteus mirabilis, IFO3849; inoculated cells 10⁶ cells/ml
Experimental: as §1, §2

P.aeruginosa U-31 = assay: as above; assay type: cell-based; conditions: Pseudomonas aeruginosa, U31; inoculated cells 10⁶ cells/ml
Experimental: as §1, §2

[6] = tested on: Proteus vulgaris IFO 3988; assay: as above; assay type: cell-based; conditions: IFO3988, inoculated cells 10⁶ cells/ml
Experimental: as §1, §2

S. aureus No.88 = assay: as above; assay type: cell-based; conditions: Staphylococcus aureus; quinolone resistant MRSA; inoculated cells 10⁶ cells/ml
Experimental: as §1, §2

[7] = tested on: S. epidermidis ATCC 12228; assay: as above; assay type: cell-based; conditions: Staphylococcus epidermidis, ATCC12228; inoculated cells 10⁶ cells/ml
Experimental: as §1, §2

S. pneumoniae Type-III = assay: as above; assay type: cell-based; conditions: Streptococcus pneumoniae; inoculated cells 10⁶ cells/ml; medium supplemented with 10% horse blood
Experimental: as §1, §2

[8] = tested on: Serratia marcescens IFO 12648; assay: as above; assay type: cell-based; conditions: IFO12648, inoculated cells 10⁶ cells/ml
Experimental: as §1, §2

Shigella flexneri EW-10 = assay: as above; assay type: cell-based; conditions: EW10, inoculated cells 10⁶ cells/ml
Experimental: as §1, §2

[9] = tested on: Staphylococcus aureus FDA 209P; assay: as above; assay type: cell-based; conditions: FDA209P, inoculated cells 10⁶ cells/ml
Experimental: as §1, §2

[10] = tested on: Streptococcus pyogenes C-203; assay: as above; assay type: cell-based; conditions: C203, inoculated cells 10⁶ cells/ml, medium supplemented with 10% horse blood
Experimental: as §1, §2

male ICR mice = assay: Preliminary micronucleus test; assay type: in vivo; conditions: for Emergence of micronucleus in polychromatic cells compared with the control group: after 24 hours, Example 5: in the dose of 1,000 mg/kg or above
Experimental: A preliminary micronucleus test was performed by oral administration to male ICR mice. […]

[11] = tested on: Bacteroides fragilis GAI 5560; assay: Antibacterial effect against specific bacteria (MIC); assay type: cell-based; conditions: GAI5560, same manner as Experimental Example 1
Experimental: as §1
(§3) In the same manner as in Experimental Example 1, the antibacterial effect against specific bacteria such as Chlamydia, Mycoplasma and acid-fast bacteria and anaerobic bacteria was determined.

[12] = tested on: Chlamydia trachomatis D/UW-3Cx; assay: as above; assay type: cell-based; conditions: same manner as Experimental Example 1
Experimental: as §1, §3

[13] = tested on: Mycobacterium smegmatis IFO 13167; assay: as above; assay type: cell-based; conditions: Mycolicibacterium smegmatis, IFO13167; same manner as Experimental Example 1
Experimental: as §1, §3

[14] = tested on: Mycoplasma pneumoniae ATCC 29343; assay: as above; assay type: cell-based; conditions: ATCC29343, same manner as Experimental Example 1
Experimental: as §1, §3

[15] = tested on: Ureaplasma urealyticum ATCC 27618; assay: as above; assay type: cell-based; conditions: ATCC27618, same manner as Experimental Example 1
Experimental: as §1, §3

E. coli KC-14 [16] = assay: MIC of the infectious bacteria used for experimental infection; assay type: cell-based; conditions: Escherichia coli, KC14; infectious strain of the mouse protection test
Experimental: as §1
(§4) Experimental infection was caused by intraperitoneal inoculation of respective bacteria to male mice. One hour after the inoculation, a test compound was orally administered to the mice. The therapeutic effect of each test compound was evaluated by reference to the 50% effective dose (ED₅₀) which was based on the survival ratio at 7 days after the administration according to the probit method [Proc. Soc. Exp. Med., Vol. 57, p 261-264 (1944)]. The minimum inhibitory concentration (MIC) of the infectious bacteria used was also determined. […]

S. aureus MRSA Y-238 [17] = assay: as above; assay type: cell-based; conditions: Staphylococcus aureus, infectious strain of the mouse protection test
Experimental: as §1, §4

S. aureus Smith [18] = assay: as above; assay type: cell-based; conditions: Staphylococcus aureus; infectious strain of the mouse protection test
Experimental: as §1, §4

E. coli KC-14 [19] = assay: Protection of mice from experimental infection; assay type: in vivo; conditions: Table 3-1: male mice; intraperitoneal inoculation 5.0×10⁶ cells/mouse (744×LD₅₀); oral administration one hour after inoculation; survival ratio at 7 days
Experimental: as §4

S. aureus MRSA Y-238 [20] = assay: Protection of mice from experimental infection; assay type: in vivo; conditions: Table 3-1: male mice; intraperitoneal inoculation 7.5×10⁶ cells/mouse (185×LD₅₀); oral administration one hour after inoculation; survival ratio at 7 days
Experimental: as §4

S. aureus Smith [21] = assay: Protection of mice from experimental infection; assay type: in vivo; conditions: male mice; intraperitoneal inoculation 2.8×10⁶ cells/mouse (123×LD₅₀); oral administration one hour after inoculation; survival ratio at 7 days, probit method
Experimental: as §4

Compound	MIC [1] [µg/mL]	MIC [2] [µg/mL]	MIC (E. avium EAY-30) [µg/mL]	MIC (E. faecium EFMY-28) [µg/mL]	MIC [3] [µg/mL]	MIC [4] [µg/mL]	MIC [5] [µg/mL]	MIC (K.pneumoniae DT-S) [µg/mL]	MIC (L.monocytogenes VTU-206) [µg/mL]	MIC (M.catarrhalis ATCC 25238) [µg/mL]	MIC (P. mirabilis IFO 3849) [µg/mL]	MIC (P.aeruginosa U-31) [µg/mL]	MIC [6] [µg/mL]	MIC (S. aureus No.88) [µg/mL]	MIC [7] [µg/mL]	MIC (S. pneumoniae Type-III) [µg/mL]	MIC [8] [µg/mL]	MIC (Shigella flexneri EW-10) [µg/mL]	MIC [9] [µg/mL]	MIC [10] [µg/mL]	also measured
COc1c(N2CC[C@](N)(CF)C2)c(F)cc2c(=O)c(C(=O)O)cn(C3CC3)c12 [Example 5, (R)-7-(3-amino-3-fluoromethylpyrrolidin-1-yl)-1-cyclopropyl-6-fluoro-1,4-dihydro-8-methoxy-4-oxo-3-quinolinecarboxylic acid]	0.025 (≈ 0.0636 µM)	0.05 (≈ 0.127 µM)	0.1 (≈ 0.254 µM)	0.1 (≈ 0.254 µM)	0.2 (≈ 0.508 µM)	0.012 (≈ 0.0305 µM)	0.025 (≈ 0.0636 µM)	0.05 (≈ 0.127 µM)	0.1 (≈ 0.254 µM)	0.012 (≈ 0.0305 µM)	0.2 (≈ 0.508 µM)	0.39 (≈ 0.991 µM)	0.39 (≈ 0.991 µM)	0.78 (≈ 1.98 µM)	0.012 (≈ 0.0305 µM)	0.012 (≈ 0.0305 µM)	0.2 (≈ 0.508 µM)	0.012 (≈ 0.0305 µM)	≤ 0.006	0.05 (≈ 0.127 µM)	Emergence of micronucleus in polychromatic cells compared with the control group (male ICR mice; oral): showed significant increase in emergence frequency of micronucleus; Emergence of micronucleus (%) (male ICR mice; oral, dose 500 mg/kg): 0.45±0.28 %; Emergence of micronucleus (%) (male ICR mice; oral, dose 1000 mg/kg): 1.45±1.45 %; Emergence of micronucleus (%) (male ICR mice; oral, dose 2000 mg/kg): 2.38±0.85 %
COc1c(N2CC[C@@](N)(CF)C2)c(F)cc2c(=O)c(C(=O)O)cn(C3CC3)c12 [Example 6, (S)-7-(3-amino-3-fluoromethylpyrrolidin-1-yl)-1-cyclopropyl-6-fluoro-1,4-dihydro-8-methoxy-4-oxo-3-quinoline carboxylic acid]	0.025 (≈ 0.0636 µM)	0.1 (≈ 0.254 µM)	0.1 (≈ 0.254 µM)	0.2 (≈ 0.508 µM)	0.2 (≈ 0.508 µM)	0.012 (≈ 0.0305 µM)	0.025 (≈ 0.0636 µM)	0.05 (≈ 0.127 µM)	0.1 (≈ 0.254 µM)	0.012 (≈ 0.0305 µM)	0.2 (≈ 0.508 µM)	0.39 (≈ 0.991 µM)	0.39 (≈ 0.991 µM)	0.39 (≈ 0.991 µM)	≤ 0.006	0.025 (≈ 0.0636 µM)	0.2 (≈ 0.508 µM)	0.012 (≈ 0.0305 µM)	≤ 0.006	0.05 (≈ 0.127 µM)	MIC [11]: 0.05 µg/mL (≈ 0.127 µM); MIC [12]: 0.012 µg/mL (≈ 0.0305 µM); MIC [13]: 0.1 µg/mL (≈ 0.254 µM); MIC [14]: 0.025 µg/mL (≈ 0.0636 µM); MIC [15]: 0.1 µg/mL (≈ 0.254 µM); MIC (E. coli KC-14 [16]): 0.012 µg/mL; MIC (S. aureus MRSA Y-238 [17]): 0.39 µg/mL; MIC (S. aureus Smith [18]): ≤ 0.006 µg/mL; ED₅₀ (mg/mouse) (95% confidence limit) (E. coli KC-14 [19]): 0.011(0.008-0.015) mg/mouse; ED₅₀ (mg/mouse) (95% confidence limit) (S. aureus MRSA Y-238 [20]): 1.54(1.103-2.151) mg/mouse; ED₅₀ (mg/mouse) (95% confidence limit) (S. aureus Smith [21]): 0.036(0.025-0.052) mg/mouse; Emergence of micronucleus in polychromatic cells compared with the control group (male ICR mice; oral): did not show significant difference in emergence of micronucleus; Emergence of micronucleus (%) (male ICR mice; oral, dose 500 mg/kg): 0.16±0.16%; Emergence of micronucleus (%) (male ICR mice; oral, dose 1000 mg/kg): 0.16±0.11%; Emergence of micronucleus (%) (male ICR mice; oral, dose 2000 mg/kg): 0.26±0.04%
CO[C@@]12[C@H](COC(N)=O)C3=C(C(=O)C(C)=C(N)C3=O)N1C[C@@H]1N[C@@H]12 [MMC, mitomycin C, reference compound]																					Emergence of micronucleus (%) (male ICR mice; dose 1 mg/kg (positive control)): 2.36±1.52 %
